Legend:
Hela cells = test: Cell viability assay (MTS) of HeLa cells with SO1861 + dianthin-EGF and PAMAM, PAMAM-conjugates, G4-dendron or chloroquine; type: cell-based, human; conditions: positive control
Protocol: Hela cells were seeded in DMEM (PAN-Biotech GmbH) supplemented with 10% fetal bovine serum (PAN-Biotech GmbH) and 1% penicillin/streptomycin (PAN-Biotech GmbH), in a 96 well plate at 5,000 c/w in 100 μL/well and incubated overnight at 37° C. and 5% CO2. The next day 20× concentrated stocks of the PAMAM, PAMAM-conjugates, G4-dendron (prepared in Example 3) or chloroquine (Sigma Aldrich) samples were prepared in DMEM. The media was removed from the cell culture plate and replaced by 160 μL culture media, followed by the addition of 10 μL sample/well (from the 20× concentrated stocks) and a 45 min incubation at 37° C. […] Followed by 15 sec sonication and a brief re-heating at 50° C. for 1 min, while shaking at 1,250 rpm. Subsequently a serial dilution of SO1861 was prepared in PBS.
Scientific Multiskan FC plate reader (Thermo Scientific).

[1] = tested on: SK-BR-3, JIMT-1, MDA-MB-468, A431, CaSKi, HeLa, A2058; test: Control treatments on all cell lines, relative cell viability (Example 8); type: cell-based, human; conditions: wide range of toxin concentrations, up to 100.000 pM (FIG. 14D)

Molecule	fold increase in glycoside amount to observe 50% cell killing (Hela cells) [fold]	relative cell viability [1]
CCN(CC)CCCC(C)Nc1ccnc2cc(Cl)ccc12 (centres unmarked) [Chloroquine]	2	
saporin		do not or hardly have any influence on cell viability

Reference: patent US20260000783A1, “ANTIBODY-DRUG CONJUGATE WITH IMPROVED THERAPEUTIC WINDOW” (priority 2018, published 2026)
